Patent US20230028441A1, “NOVEL HETEROARYL-TRIAZOLE COMPOUNDS AS PESTICIDES” (Bayer Aktiengesellschaft, priority 2019, published 2023)

How the values were obtained:
Assay type in all cases: in vivo
[1] = test system: green peach aphid (Myzus persicae); test: Myzus persicae oral test; settings: 120 h
Outline: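 Readout: % mortality at day 5, where 100% = all aphids dead and 0% = none dead. Feeding via parafilm membrane over compound in IPL41 medium (33%+15% sugar); mixed-age population. Stock in acetone (1:100 w/w), water-diluted.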

[2] = test system: adult cat fleas (Ctenocephalides felis); test: Ctenocephalides felis in-vitro contact test, adult cat flea; settings: 5 μg/cm^2 (=500 g/ha), after 48 hours, read-out: efficacy (fleas dead or moribund)
Outline: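 Efficacy (%) counts fleas that are dead or moribund, meaning unable to escape heat (45-50 °C, ≤5 min) by climbing. Scoring was done 48 h after 5-10 adults were placed at room temperature in glass tubes. The tubes carried a dried acetone film of compound, 5 μg/cm^2 at 900 ppm.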

[3] = test system: cattle tick larvae (Rhipicephalus microplus), strain Parkhurst, resistant against synthetic pyrethroids; test: Rhipicephalus (Boophilus) microplus in-vitro contact test, larval cattle tick; settings: 5 μg/cm^2 (=500 g/ha), after 48 hours, read-out: efficacy (larvae dead or moribund)
Outline: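 Efficacy, 100% meaning all larvae dead or moribund, was judged at 48 h from loss of negative geotactic climbing. Larvae of the Parkhurst strain, 20–50 per tube, were exposed at 27° C and 85% humidity to acetone-coated tube surfaces; 900 ppm corresponded to 5 μg/cm^2.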

[4] = test system: fall armyworm larvae (Spodoptera frugiperda); test: Spodoptera frugiperda spray test (maize leaf sections); settings: 168 h
Outline: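 Percent kill of Spodoptera frugiperda larvae was recorded 7 days after infesting dried, treated maize leaf sections. Spray solutions were made from an acetone/DMF compound preparation diluted with 1000 ppm emulsifier-containing water.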

[5] = test system: adult brown dog ticks (Rhipicephalus sanguineus); test: Rhipicephalus sanguineus in-vitro contact test with adult brown dog ticks; settings: after 48 hours, read-out: efficacy (ticks dead or moribund); for pest or weed control at 1 µg/cm2, 100 g/ha: 1 μg/cm^2 (=100 g/ha); for pest or weed control at 5 µg/cm2, 500 g/ha: 5 μg/cm^2 (=500 g/ha)
Outline: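 Efficacy is the percentage of adult ticks dead or moribund, meaning immotile or uncoordinated and unable to escape 45-50° C. heat within 5 min. Read 48 h after 5-10 ticks were enclosed at room temperature in acetone-coated glass tubes. Dose 5 μg/cm^2, from a 900 ppm coating solution.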

[6] = test system: larvae of the banded cucumber beetle (Diabrotica balteata); test: Diabrotica balteata spray test; settings: 168 h, 100 g/ha (=32 μg/well), after 7 days, wheat seeds, read-out: efficacy (seedlings grown up)
Outline: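 Efficacy (%) read at day 7: 100% means seedlings grew like untreated, uninfested controls; 0% means no seedlings grew. Wheat seeds germinated 1 day on agar, sprayed with emulsified compound solution (1000 ppm emulsifier in water), then each well infested with 10-20 larvae.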

[7] = test system: caterpillars of the fall army worm (Spodoptera frugiperda); test: Spodoptera frugiperda spray test (cotton leaves); settings: 168 h
Method: Solvent: 14 parts by weight of dimethylformamide
Emulsifier: alkylaryl polyglycol ether
(§1) To produce a suitable preparation of active compound, 1 part by weight of active compound is mixed with the stated amount of solvent and is diluted with water, containing an emulsifier concentration of 1000 ppm, to the desired concentration. Further test concentrations are prepared by dilution with emulsifier containing water. Ammonium salt and/or penetration enhancer in a dosage of 1000 ppm are added to the desired concentration if necessary.
Cotton leaves (Gossypium hirsutum) are treated by being sprayed with the preparation of the active compound of the desired concentration and are infested with caterpillars of the fall army worm (Spodoptera frugiperda).
After 7 days mortality in % is determined. 100% means all the caterpillars have been killed and 0% means none of the caterpillars have been killed.

[8] = test system: adult engorged female ticks (Rhipicephalus microplus); test: Rhipicephalus (Boophilus) microplus injection test; settings: 168 h, 4 μg/animal, egg deposition after 7 days, read-out: efficacy (infertile eggs)
Outline: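 Efficacy is the share of infertile eggs: 100% means none are fertile, 0% means all are fertile. Egg deposition was checked 7 days after injecting 1 μL of DMSO-diluted compound into the abdomen of five engorged female R. microplus, with doubtful eggs kept about 42 days to hatching. The stock was 10 mg in 0.5 mL DMSO.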

[9] = test system: adult unfed cat fleas (Ctenocephalides felis); test: Ctenocephalides felis oral test; settings: 48 h, 100 ppm in cattle blood, after 2 days
Outline: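 Percent flea mortality recorded at 2 days. Compound was dissolved in dimethyl sulfoxide and diluted into cattle blood, which ~20 unfed adult cat fleas ingested through parafilm from a 37°C-heated chamber, their own chamber kept at room temperature.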

[10] = test system: larvae of the southern green stink bug (Nezara viridula); test: Nezara viridula spray test; settings: in Hordeum vulgare, 96 h
Outline: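 Percent mortality of southern green stink bug larvae read 4 days after spraying infested Hordeum vulgare. Test solutions: compound in acetone plus dimethylformamide, diluted with emulsifier-containing water (1000 ppm alkylarylpolyglycol ether).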

[11] = test system: brown planthopper (Nilaparvata lugens); test: Nilaparvata lugens spray test; settings: in Oryza sativa, 96 h
Outline: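 Rice plants (Oryza sativa) sprayed with compound in acetone/DMF diluted in water containing 1000 ppm alkylarylpolyglycol ether emulsifier, then infested with planthoppers. Mortality % scored after 4 days (100% = all killed, 0% = none killed).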

[12] = test system: green peach aphid (Myzus persicae); test: Myzus persicae spray test; settings: foliar, 120 h, 100 g/ha, after 5 days, Chinese cabbage leaf disks
Method: Solvent: 78.0 parts by weight acetone • 1.5 parts by weight dimethylformamide
Emulsifier: alkylarylpolyglycol ether
as §1, with “solvents” for “solvent”, “water.” for “water. Ammonium salt and/or penetration enhancer in a dosage of 1000 ppm are added to the desired concentration if necessary.”
Chinese cabbage (Brassica pekinensis) leaf disks infected with all instars of the green peach aphid (Myzus persicae), are sprayed with a preparation of the active ingredient of the desired concentration.
After 5 days mortality in % is determined. 100% means all aphids have been killed and 0% means none of the aphids have been killed.

SMILES | mortality at 4 ppm [1] | pest or weed control at 5 µg/cm2 [2] | pest or weed control at 5 µg/cm2 [3] | mortality at 100 g/ha [4] | pest or weed control at 1 µg/cm2, 100 g/ha [5] | pest or weed control at 5 µg/cm2, 500 g/ha [5] | pest or weed control at 32 µg/disc, 100 g/ha [6] | mortality at 20 ppm [7] | pest or weed control at 0.004 mg [8] | mortality at 100 ppm [9] | mortality at 500 g/ha [10] | mortality at 500 g/ha [11] | mortality at 100 g/ha [12]
CC(NC(=O)c1cc(C(F)(F)F)cc(C(F)(F)F)c1)c1nc(N)nn1-c1ccc(C#N)cn1 (stereo not shown) [I-104] | 100% | 100% | 100% | 100% | 100% | 100% | 100% | 100% | 100% | 100% |  |  | 
CC(NC(=O)c1cc(F)cc(C#N)c1)c1nc(N)nn1-c1ncccn1 (stereo not shown) [I-105] | 100% | 100% | 100% | 100% |  |  | 100% | 100% | 100% | 100% |  |  | 
CC(NC(=O)c1cc(Cl)cc(OC(F)(F)F)c1)c1nc(N)nn1-c1ccc(C#N)cn1 (stereo not shown) [I-118] | 100% | 90% | 100% | 100% |  |  | 100% | 100% | 100% | 100% | 100% |  | 
CNc1nc([C@H](C)NC(=O)c2cc(Br)cc(C(F)(F)F)c2)n(-c2ncccn2)n1 [I-136] |  |  | 100% | 100% | 100% | 100% | 100% | 100% |  |  | 90% | 100% | 
C[C@H](NC(=O)c1cc(Br)cc(OC(F)(F)F)c1)c1nc(N(C)C)nn1-c1ncccn1 [I-139] |  | 100% | 100% | 100% | 80% | 100% | 100% | 100% |  |  | 100% | 100% | 
CON(C)c1nc([C@H](C)NC(=O)c2cc(OC(F)(F)F)cc(C3CC3)c2)n(-c2ncccn2)n1 [I-152] |  |  |  | 100% |  |  | 100% | 100% |  |  | 100% | 100% | 90%
C[C@H](NC(=O)c1cc(OC(F)(F)F)cc(C2CC2)c1)c1nc(N)nn1-c1ccc(C#N)cn1 [I-154] |  | 100% | 100% | 100% | 80% | 80% | 100% | 100% |  |  | 100% |  | 
